# Source: PMC5760651, “Peptidomimetic blockade of MYB in acute myeloid leukemia” (Nature Communications, 2018)
# Non-standard residues stand in square brackets, D forms with d. Residues, ends and D or L forms follow the SMILES beside them.
# Experiments:
# MV-411 and MOLM-13 cells = assay: qRT-PCR of BCL2 mRNA expression; type: cell-based, human; details: 20 μM, 6 h
# Protocol: RNA was isolated using Trizol reagent according to the manufacturer’s instructions (Life Technologies). Complementary DNA was synthesized using the SuperScript III First-Strand Synthesis system according to the manufacturer’s instructions (Invitrogen). Quantitative real-time PCR was performed using the KAPA SYBR FAST PCR polymerase with 20 ng template and 200 nM primers, according to the manufacturer’s instructions (Kapa Biosystems, Wilmington, MA, USA). PCR primers are listed in Supplementary Table 4. Ct values were calculated using ROX normalization using the ViiA 7 software (Applied Biosystems).
# MV-411 cells [1] = assay: H3K27Ac ChIP-PCR at the BCL2 enhancer; type: cell-based, human; details: 20 μM, 24 h, ChIP-qPCR, compared to TG3 or untreated control, p = 8.6e-3
# Protocol: Cross-linking was ended by the addition of 1/20 volume of 2.5 M Glycine for 5 min at room temperature followed by cell lysis and sonication ([…] Covaris sonicator) to obtain 100- to 500-bp chromatin fragments. H3K27Ac Rabbit polyclonal antibody (Abcam, #4729) was conjugated to Protein A and G Dynabeads per manufacturer's instructions (Thermo Fischer Scientific). Lysates were incubated overnight at 4 °C with antibody-conjugated beads in suspension. Precipitates were then washed sequentially with cold washing solution (1% NP-40, […], 50 mM Hepes-KOH, pH 7.6, 500 mM LiCl, 0.7% Na-Deoxycholate) and then washing solution (50 mM Tris-HCL, pH 8.0, 10 mM EDTA, 50 mM NaCl), then eluted in elution buffer (50 mM Tris-HCL, pH 8.0, 10 mM EDTA, 1% SDS). Reversal of crosslinks in elution buffer overnight at 65 °C followed by digestion of RNA and protein using RNase (Roche, Catalog No. 111119915-001) and Proteinase K (Roche, Catalog No. 03115828001). DNA purification was performed using PureLink PCR Purification Kit per manufacturer's protocol (Invitrogen). qPCR was performed as described below.
# MV-411 cells [2] = assay: Flow cytometric analysis of apoptosis; type: cell-based, human; details: 20 μM, 24 h, flow cytometry, p = 5.4e-3
# Protocol: Cells were resuspended to a concentration of 1 × 10^6 cells were plated in triplicate in a 12-well tissue culture plate. For assessment of annexin V staining, cells were washed with PBS and then resuspended in PBS with Annexin V-APC (BioLegend) and propidium iodide at a dilution of 1:1000. For intracellular detection of cleaved caspase 3, cells were fixed and permeabilized using the BD Cytofix/Cytoperm Fixation/Permeabilization solution according to the manufacturer’s instructions (BD Biosciences). Cells were then stained using the Alexa Fluor 647-conjugated anti-active caspase-3 (BD Biosciences) at a dilution of 1:50. Cells were incubated for 30 minutes room temperature in the dark, washed, and then analyzed using the BD LSRFortessa cell analyzer. For assessment of differentiation, cells were stained using the anti-human CD14 PE at a dilution of 1:20 (Affymetrix eBiosciences) and anti-human CD66b at a dilution of 1:20 (Affymetrix eBiosciences).
# [3] = tested on: MOLM-13, MV-411, ML-2 and HL-60 cells; assay: Cell viability of AML cell lines; type: cell-based, human; details: 6 days, 20 μM TG1, TG2 or TG3, 10 and 20 μM MYBMIM, peptide replacement every 48 h, compared to untreated control
# Protocol: (§1) Cells were resuspended and plated at a concentration of 2 × 10^5 cells in 200 μl in 96-well tissue culture plates. Media with peptides was replaced every 48 h. To assess the number of viable cells, cells were resuspended in PBS and 10 µl of suspension was mixed in a 1:1 ratio with 0.4% Trypan Blue (Thermo Fisher) and counted using a hemacytometer (Hausser Scientific, Horsham, PA, USA). To assess viability using an ATP-based assay, cell viability was assessed using the CellTiter-Glo Luminescent Viability assay, according to the manufacturer’s instructions (Promega). Luminescence was recorded using the Infinite M1000Pro plate reader using integration time of 250 ms (Tecan).
# MV-411 cells [4] = assay: Growth and survival of MV-411 cells with ectopic BCL2 (MIG-BCL2) or empty MIG vector; type: cell-based, human; details: 20 μM
# Protocol: as §1
# The MIG-BCL2 vector was packaged using pUMVc and pCMV-VSVG vectors in HEK 293T cells and the FuGENE 6 transfection reagent, according to manufacturer’s instructions (Promega). Virus supernatant was collected at 48 and 72 h post transfection, pooled, filtered and stored at −80 °C. Cells were transduced with virus particles at a multiplicity of infection of 1 by spin inoculation for 90 min at 3500 rpm at 35 °C in the presence of 8 μg/ml hexadimethrine bromide. Two days after transduction, cells were isolated using fluorescence-activated cell sorting (FACSAria III, BD Bioscience, San Jose, CA, USA).
# [5] = tested on: primary patient-derived MLL-rearranged leukemia cells in NSG mice; assay: Patient-derived MLL-rearranged leukemia xenograft, treatment 3 days post transplantation, survival; type: in vivo, mouse
# Protocol: All mouse experiments were carried out in accordance with the Memorial Sloan Kettering Institutional Animal Care and Use Committee. For toxicity studies, female C57BL/6J mice (The Jackson Laboratory, Bar Harbor, Maine, USA) were treated with MYBMIM peptide suspended in PBS and administered daily through intraperitoneal injection at a dose of 25 mg/kg for a total of 7 days. Mice were sacrificed at the end of treatment for hematologic, biochemical and histologic analyses. For pharmacokinetic studies, C57BL/6J mice (The Jackson Laboratory, Bar Harbor, Maine, USA) were treated with a single IP injection of 25 mg/kg BIO-MYBMIM, and blood plasma was collected 30 min, 2 h, 4 h, and 24 h post-injection. Quantification of BIO-MYBMIM was measured using the Quant-Tag Biotin kit (Vector Labs, cat. # BDK-2000) following the manufacturer instructions. For patient-derived xenografts, two hundred thousand primary AML MLL-rearranged leukemia cells were suspended in […] of PBS and transplanted via tail vein injection into 8-week-old sublethally irradiated (200 rad) female NOD.Cg-Prkdc(scid)Il2rg(tm1Wjl)/SzJ mice (The Jackson Laboratory, Bar Harbor, Maine, USA). […] Mice were treated from days 3–17 of this study for a total of 14 days and then monitored daily with clinical examination for survival analysis.
compound,measurement,setting,value
CC[C@@H](C)[C@@H](NC(=O)[C@@H](CCCCN)NC(=O)[C@@H](CCC(=O)O)NC(=O)[C@@H](CC(C)C)NC(=O)[C@@H](CCC(=O)O)NC(=O)[C@@H](CC(C)C)NC(=O)[C@@H](CC(C)C)NC(=O)[C@@H](CC(C)C)NC(=O)[C@@H](CCSC)NC(=O)[C@@H](CO)NC(=O)[C@H](NC(=O)[C@@H](CCC(=O)O)NC(=O)[C@@H](CC(N)=O)NC(=O)[C@@H](CCC(=O)O)NC(=O)[C@@H](CC(C)C)NC(=O)[C@@H](CCCCN)NC(C)=O)[C@H](C)O)C(=O)N[C@H](CCCNC(=N)N)C(=O)N[C@H](CCCCN)C(=O)NCC(=O)NCC(=O)N[C@H](CCCNC(=N)N)C(=O)N[C@H](CCCNC(=N)N)C(=O)N[C@H](CCCNC(=N)N)C(=O)N[C@H](CCC(N)=O)C(=O)N[C@H](CCCNC(=N)N)C(=O)N[C@H](CCCNC(=N)N)C(=O)N[C@H](CCCCN)C(=O)N[C@H](CCCCN)C(=O)N[C@H](CCCNC(=N)N)C(=O)NCC(=O)N[C@H](Cc1ccc(O)cc1)C(N)=O [MYBMIM] (Ac-[dK][dL][dE][dN][dE][dT][dS][dM][dL][dL][dL][dE][dL][dE][dK][dI][dR][dK]GG[dR][dR][dR][dQ][dR][dR][dK][dK][dR]G[dY]-NH2),BCL2 expression downregulation,MV-411 and MOLM-13 cells,more than two-fold
same,H3K27Ac at the BCL2 enhancer,MV-411 cells [1],significant albeit incomplete reduction
same,Apoptosis by cell surface annexin V and intracellular caspase 3 cleavage,MV-411 cells [2],significant apoptosis
same,Growth of AML cell lines,[3],"sustained, logarithmic reduction of growth"
same,Cell growth and survival of mock-treated and MIG empty vector control transduced MV-411 cells,MV-411 cells [4]; p = 0.003,significant reduction of cell growth and survival
same,MYBMIM-induced apoptosis in cells ectopically overexpressing BCL2,MV-411 cells [4]; MV-411 MIG-BCL2 cells,"largely, though not completely, rescued"
same,Leukemia progression and survival,"[5]; NSG mice, 25 mg/kg IP twice daily, 14 days from 3 days post-transplantation, n = 15 per group, p = 3.8e-3 log-rank",significantly delayed leukemia progression and extended survival
same,Disease latency in secondary transplant recipients,"[5]; leukemia cells from moribund MYBMIM-treated mice vs vehicle, n = 10 per group, p < 0.0001 log-rank",significantly delayed disease latency
